What was measured:
[1] = test system: bleomycin-induced lung inflammation; test: Interstitial/alveolar inflammatory cell infiltrate score, BLM rat model, combination study (Example 3); assay type: in vivo, rat (male Sprague Dawley); settings: BLM-induced rats; alone or in combination, vs PO plus IV vehicles; data not shown
Protocol: The five lung lobes were collected and weighed. On Day 17, the right accessory lobe was retained and desiccated to obtain dry weight. The remaining right lung lobes were inflated and fixed in 10% neutral buffered formalin and embedded in paraffin for histological analysis. An approximately 50 mg piece of the left lung lobe was snap frozen and stored at −80° C. for potential RNA analysis. The remainder of the lobe was also snap frozen until analyzed for collagen content.
Sections for histology were stained using picrosirius red and were scored in a blinded fashion (1 score for each of the 3-4 lobes) by a veterinary pathologist using a modified Ashcroft score (Hubner et al., 2008). Hydroxyproline content was determined in the left lung lobe using a mass spectrometry method.
Slides were read by a veterinary pathologist and each of the 3 lobes evaluated was assigned 4 score types [Ashcroft for fibrosis (scores range from 0 to 8), perivascular/peribronchiolar inflammatory cell infiltrate (scores range from 0 to 5), interstitial/alveolar inflammatory cell infiltrate (scores range from 0 to 5), type II pneumocyte hyperplasia (scores range from 0 to 5)].

[2] = Body weight, BLM mouse model (Example 1); assay type: in vivo, mouse (male C57Bl/6J); settings: BLM-induced mice; daily PO from Day 0: dexamethasone 0.25 mg/kg, Nintedanib 60 mg/kg
Protocol: (§1) Lung inflammation and fibrosis were induced in male C57Bl/6J mice by oropharyngeal administration of BLM. After the habituation phase mice were randomized based on body weight over the different groups. Under isoflurane anesthesia, 50 μl PBS or BLM was dripped onto the vocal cords facilitating aspiration. Mice were sacrificed at day 21 using a terminal bleed under isoflurane anesthesia.
(§2) Daily oral treatments commenced on Day 0, while daily IV treatments commenced on Day 8. Dosing was planned to continue until the day of termination (Day 21), however, due to high mortality in IV treated groups (see results), IV dosing was skipped on Day 19 and Day 20. […] Subsequently, the mice received 8% D20 (Kinemed, Emeryville) drinking water until sacrifice to maintain labeling of newly formed collagen. Body weight was monitored three times a week.

[3] = Body weight, BLM rat model, combination study (Example 3); assay type: in vivo, rat (male Sprague Dawley); settings: BLM-induced rats; Nintedanib, Pirfenidone or Test Article (HRS^FC1 3 mg/kg IV weekly), alone or in combination, from Day 9
Protocol: (§3) PBS or BLM was administered under isoflurane anesthesia. Excess rats were induced with BLM and used to replace any animals with excessive body weight loss.
(§4) All treatments commenced on Day 9.
(§5) In-life, body weights were measured and clinical observations were conducted daily. On Days 8, 15 and 21, animals were removed from their home cages and placed individually into whole body plethysmography chambers. After a 20-minute acclimatization phase, respiratory parameters were recorded for 10 minutes. Pre-study and on Days 10 and Day 17, whole blood was obtained from the tail vein and processed to serum for measurement of HRS^FC1.

[4] = test system: bleomycin-induced respiratory impairment; test: Respiratory measurements by whole body plethysmography, BLM rat model, combination study (Example 3, Table E6); assay type: in vivo, rat (male Sprague Dawley); set-up: Tidal Volume: unit not given here; settings: for Expiratory Time / Inspiratory Time / Peak Expiratory Flow / Peak Inspiratory Flow / Tidal Volume / Respiratory Rate / Respiratory Minute Volume: mean; for Respiratory Rate: in breaths/min (unit assumed); for Respiratory Minute Volume: in mL/min (unit assumed)
Protocol: as §3, §4, §5

[5] = test system: bleomycin-induced lung inflammation and fibrosis; test: Cell counts in BAL fluid, BLM mouse model (Example 1); assay type: in vivo, mouse (male C57Bl/6J); settings: BLM-induced mice; daily PO from Day 0: dexamethasone 0.25 mg/kg, Nintedanib 60 mg/kg; vs PO vehicle
Protocol: as §1, §2
The lungs were flushed two times with 750 μl PBS, combined into one bronchoalveolar lavage (BAL) sample, and stored on ice until centrifugation. The supernatant was collected and stored frozen (<−70° C.). The erythrocytes in the cell pellet were lysed and the remaining cells were resuspended in 100 μl PBS. 20 μl was diluted in trypan blue solution and used for counting the live cells using a hemocytometer.

[6] = Body weight, BLM rat model (Example 2); assay type: in vivo, rat (male Sprague Dawley); settings: BLM-induced rats; Nintedanib 60 mg/kg PO daily; Test Article = HRS^FC1 0.1-3 mg/kg IV weekly
Protocol: PBS or BLM was administered under isoflurane anesthesia.
In-life, body weights were measured and clinical observations were conducted daily. On Day 8 and Day 15, animals were removed from their home cages and placed individually into whole body plethysmography chambers. After a 20-minute acclimatization phase, respiratory parameters were recorded for 10 minutes.

[7] = Day 8 (prior to any treatments), Ninte. PO + Vehicle IV group

COC(=O)c1ccc2c(c1)NC(=O)/C2=C(\Nc1ccc(N(C)C(=O)CN2CCN(C)CC2)cc1)c1ccccc1 [Nintedanib, nintedanib]
Interstitial inflammatory cell infiltrate [1]: no significant effect
Body weight, of initial body weights [2]: around 90%
Body weight curves vs respective controls [3]: None of the groups treated with Nintedanib, Pirfenidone or Test Article alone or in combination had body weight curves that significantly differed
BLM-induced alterations in respiratory parameters ([4]; BLM-induced rats, Day 15 and Day 21, Nintedanib, Pirfenidone or Test Article (HRS^FC1)): did not significantly impact
Expiratory Time [4, 7]: 0.151 s
Inspiratory Time [4, 7]: 0.115 s
Peak Expiratory Flow [4, 7]: 18.4
Peak Inspiratory Flow [4, 7]: 17.2
Tidal Volume [4, 7]: 1.19
Respiratory Rate [4, 7]: 249.0
Respiratory Minute Volume [4, 7]: 304.5
Expiratory Time ([4]; Day 15, Ninte. PO + Vehicle IV): 0.205 s
Inspiratory Time ([4]; Day 15, Ninte. PO + Vehicle IV): 0.122 s
Peak Expiratory Flow ([4]; Day 15, Ninte. PO + Vehicle IV): 16.5
Peak Inspiratory Flow ([4]; Day 15, Ninte. PO + Vehicle IV): 19.0
Tidal Volume ([4]; Day 15, Ninte. PO + Vehicle IV): 1.35
Respiratory Rate ([4]; Day 15, Ninte. PO + Vehicle IV): 223.4
Respiratory Minute Volume ([4]; Day 15, Ninte. PO + Vehicle IV): 309.5
Expiratory Time ([4]; Day 21, Ninte. PO + Vehicle IV): 0.231 s
Inspiratory Time ([4]; Day 21, Ninte. PO + Vehicle IV): 0.127 s
Peak Expiratory Flow ([4]; Day 21, Ninte. PO + Vehicle IV): 13.9
Peak Inspiratory Flow ([4]; Day 21, Ninte. PO + Vehicle IV): 18.1
Tidal Volume ([4]; Day 21, Ninte. PO + Vehicle IV): 1.44
Respiratory Rate ([4]; Day 21, Ninte. PO + Vehicle IV): 203.7
Respiratory Minute Volume ([4]; Day 21, Ninte. PO + Vehicle IV): 286.0
Live cells counted in BAL fluid at termination [5]: did not significantly affect
Body weight curves vs respective controls [6]: None of the groups treated with Nintedanib or Test Article had body weight curves that significantly differed

— patent US11767520B2, “Compositions and methods for treating lung inflammation” (aTyr Pharma, Inc., priority 2017, dated 2023)
